Experimental data as given in US20240123249A1, “ANALGESIA VIA LOW AND ULTRA-LOW FREQUENCY MAGNETIC OR ELECTROMAGNETIC FIELDS AND RELATED SYSTEMS AND METHODS” (EMulate Therapeutics, Inc., priority 2022, published 2024).

Columns and labels:
cold allodynia = test: Oxaliplatin induced neuropathic cold allodynia, paw immersion test; settings: rat, in vivo
mechanical hyperalgesia = test: Carrageenan induced mechanical hyperalgesia, paw pressure test (Randall & Selitto); type: in vivo, rat
tactile allodynia = test: Bennett model of peripheral mononeuropathy, tactile allodynia by electronic Von Frey; type: in vivo, rat
[1] = 30 minutes after morphine 3 mg/kg / 24 hours after signal exposure
[2] = pair-wise Students T-test, α=0.01

Compound: CNCC[C@H](Oc1cccc2ccccc12)c1cccs1 [duloxetine]
- Oxaliplatin: statistical significance (P) versus MC 1% control group (cold allodynia): significantly increased
- leg withdrawal time (latency of hind paw withdrawal) (cold allodynia): 13.2 ± 1.6 s

Compound: COc1ccc2c(c1)c(CC(=O)O)c(C)n2C(=O)c1ccc(Cl)cc1 [Indomethacin]
- applied pressure, carrageenan injected (injured) paw (mechanical hyperalgesia; 3 h after 2% carrageenan, signals 24 h exposure, Indomethacin 30 mg/kg, MC 1% group 218±18): 306±21 grams
- Carrageenan: statistical significance (P) versus MC 1% group, injured paw (mechanical hyperalgesia; Dunnett's test after ANOVA, N=10): 0.01
- Carrageenan model: significance versus MC 1% group, uninjured paw (mechanical hyperalgesia; left paw not injected with carrageenan, Dunnett's test): no significant differences between groups in the uninjured paws, except in the Indomethacin injected group

Compound: CN1CC[C@]23c4c5ccc(O)c4O[C@H]2[C@@H](O)C=C[C@H]3[C@H]1C5 [morphine]
- average force applied, control paw, Post-Tx (tactile allodynia; [1]): 578±73 grams
- average force applied, injured paw, Post-Tx (tactile allodynia; [1]): 438±51 grams
- average force applied, control paw, Pre-Tx (tactile allodynia; before treatment): 300±30 grams
- average force applied, injured paw, Pre-Tx (tactile allodynia; before treatment): 180±27 grams
- Bennett: statistical significance (P) Pre-Tx vs. Post-Tx, Control Paw (tactile allodynia; [2]): < 0.00001
- Bennett: statistical significance (P) Pre-Tx vs. Post-Tx, Injured Paw (tactile allodynia; [2]): reached statistical significance
